For data set [1], the system named is L1210. The experiment in a line: Antitumor activity against mouse L1210 cells […] in ip dosed C3H X DBA2 F1 hybrid mouse on day 0 and dosed once daily on days 1 to 5 assessed as increase in life span relative to control. It is filed as functional.
A further data set relates to Mus musculus. The experiment in a line: Toxicity in ip dosed C3H X DBA2 F1 hybrid mouse […] with mouse L1210 cells on day 0 and dosed once daily on days 1 to 5 measured after 50 days. In kind it is organism-based. The note with it: in vivo, 1200 h.
For data set [2], the system named is L1210. The experiment in a line: Antitumor activity against mouse L1210 cells […] in ip dosed C3H X DBA2 F1 hybrid mouse on day 0 and dosed at LD10 level once daily on days 1 to 5 assessed as increase in life span relative to control. In kind it is functional.
Data set [3] is described as follows: Lipophilic-hydrophilic balance, Rm of the compound by partition chromatography. In kind it is physicochemical.

On to `CC[n+]1cccc2cc(NC(=O)/C=C/c3ccc(C(=O)Nc4ccc5c(ccc[n+]5CC)c4)cc3)ccc21.Cc1ccc(S(=O)(=O)[O-])cc1.Cc1ccc(S(=O)(=O)[O-])cc1`, for which the D40 with L1210 [1] came out at 5 mg/kg. This compound registered an LD10 in the data set with Mus musculus of 9 mg/kg. In the data set with L1210 [2], the “log(ILSmax)” value stood at 1.7. In data set [3], this compound had a Rm of 0.11.
On the same counts, the results for `C[n+]1cccc(NC(=O)c2ccc(NC(=O)c3ccc(C(=O)Nc4ccc(C(=O)Nc5ccc[n+](C)c5)cc4)cc3)cc2)c1.Cc1ccc(S(=O)(=O)[O-])cc1.Cc1ccc(S(=O)(=O)[O-])cc1` are 5.9 mg/kg, 56 mg/kg, 2.13 and -0.74.
Take `CCCCC[n+]1cccc2cc(NC(=O)COc3ccc(C(=O)Nc4ccc5c(ccc[n+]5CCCCC)c4)cc3)ccc21.Cc1ccc(S(=O)(=O)[O-])cc1.Cc1ccc(S(=O)(=O)[O-])cc1`: the D40 with L1210 [1] was determined as 100 mg/kg. The LD10 in the data set on Mus musculus was 150 mg/kg. Besides, the “log(ILSmax)” value in the data set on L1210 [2] worked out at 1.53. In data set [3], this compound showed a Rm of 0.78.
In the same order, the values of `CC[n+]1cccc(NC(=O)c2ccc(NC(=O)C34CCC(C(=O)Nc5ccc(C(=O)Nc6ccc[n+](CC)c6)cc5)(CC3)CC4)cc2)c1.Cc1ccc(S(=O)(=O)[O-])cc1.Cc1ccc(S(=O)(=O)[O-])cc1` are 18 mg/kg, 27 mg/kg, 1.65 and 0.59.
In the same order, the values of `CCC[n+]1cccc2cc(NC(=O)/C=C/c3ccc(C(=O)Nc4ccc5c(ccc[n+]5CCC)c4)cc3)ccc21.Cc1ccc(S(=O)(=O)[O-])cc1.Cc1ccc(S(=O)(=O)[O-])cc1` are 4.3 mg/kg, 20 mg/kg, 2 and 0.5.
Take `CC[n+]1cccc2cc(NC(=O)c3ccc(NC(=O)c4ccc(C(=O)Nc5ccc6c(ccc[n+]6CC)c5)cc4)cc3)ccc21.Cc1ccc(S(=O)(=O)[O-])cc1.Cc1ccc(S(=O)(=O)[O-])cc1`: the D40 in the data set with L1210 [1] was 13 mg/kg. In the data set with Mus musculus, the LD10 was determined as 45 mg/kg. The “log(ILSmax)” value in the data set with L1210 [2] turned out to be 2.05. Also, the Rm in data set [3] is reported as -0.52.
On the same counts, the results for `CC[n+]1c(C)cc(Nc2ccc(NC(=O)c3ccc(C(=O)Nc4ccc(Nc5cc(C)[n+](CC)c(N)n5)cc4)cc3)cc2)nc1N.Cc1ccc(S(=O)(=O)[O-])cc1.Cc1ccc(S(=O)(=O)[O-])cc1` are 69 mg/kg, 200 mg/kg, 2.09 and -0.4.
On the same counts, the results for `CC[n+]1cc(-c2ccc(NC(=O)c3ccc(Nc4cc[n+](CC)c5ccccc45)cc3)cc2)c(N)nc1N.[I-].[I-]` are 3.3 mg/kg, 32 mg/kg, 2.11 and 0.45.
Consider `CCC[n+]1ccc(-c2ccc(-c3ccc(-c4ccc(NC(=O)c5ccc(C(=O)Nc6ccc(-c7ccc(-c8ccc(-c9cc[n+](CCC)cc9)cc8)cc7)cc6)cc5)cc4)cc3)cc2)cc1.Cc1ccc(S(=O)(=O)[O-])cc1.Cc1ccc(S(=O)(=O)[O-])cc1`, for which, in the data set on L1210 [1], the D40 came to 4.6 mg/kg. The LD10 in the data set on Mus musculus turned out to be 10 mg/kg. Also, in the data set on L1210 [2], the “log(ILSmax)” value came to 2.03. This compound yielded a Rm in data set [3] of 0.46.
With `CCC[n+]1ccc(Nc2ccc(NC(=O)/C=C/c3ccc(/C=C/C(=O)Nc4ccc(Nc5cc[n+](CCC)cc5)cc4)cc3)cc2)cc1.[Br-].[Br-]`, the D40 in the data set with L1210 [1] amounted to 13 mg/kg. Further, the LD10 in the data set with Mus musculus worked out at 25 mg/kg. In addition, the “log(ILSmax)” value in the data set on L1210 [2] is recorded as 1.85. In addition, the Rm in data set [3] is 0.46.
In the case of `Cc1cc(Nc2ccc(C(=O)Nc3ccc(Nc4cc[n+](C)cc4)cc3)c(N)c2)c2cc(N)ccc2[n+]1C.[I-].[I-]`, the D40 in the data set on L1210 [1] came to 8.4 mg/kg. The LD10 in the data set on Mus musculus came out at 110 mg/kg. In addition, in the data set with L1210 [2], the “log(ILSmax)” value is recorded as 2.2. In data set [3], this compound came in with a Rm of 0.16.
In the same order, the values of `CC[n+]1cccc2cc(NC(=O)c3ccc(C(=O)Nc4ccc(NC(=O)c5ccc6c(ccc[n+]6CC)c5)cc4)cc3)ccc21.Cc1ccc(S(=O)(=O)[O-])cc1.Cc1ccc(S(=O)(=O)[O-])cc1` are 35 mg/kg, 50 mg/kg, 1.9 and -0.35.
In the same order, the values of `CCC[n+]1cccc(NC(=O)c2ccc(NC(=O)c3ccc(C(=O)Nc4ccc5c(ccc[n+]5CCC)c4)cc3)cc2)c1.Cc1ccc(S(=O)(=O)[O-])cc1.Cc1ccc(S(=O)(=O)[O-])cc1` are 10.2 mg/kg, 20 mg/kg, 2.17 and 0.44.
As for `CC[n+]1cccc(NC(=O)c2ccc(NC(=O)c3ccc(C(=O)Nc4ccc(C(=O)Nc5ccc[n+](CC)c5)cc4)c(N)c3)cc2)c1.Cc1ccc(S(=O)(=O)[O-])cc1.Cc1ccc(S(=O)(=O)[O-])cc1`, the D40 with L1210 [1] was 2.4 mg/kg. In the data set on Mus musculus, the LD10 is 14 mg/kg. Also, in the data set on L1210 [2], the “log(ILSmax)” value came out at 2.13. In addition, the Rm in data set [3] is given as -0.15.
Consider `CCC[n+]1cccc2cc(NC(=O)c3ccc(C(=O)Nc4ccc5c(ccc[n+]5CCC)c4)nc3)ccc21.Cc1ccc(S(=O)(=O)[O-])cc1.Cc1ccc(S(=O)(=O)[O-])cc1`, for which the D40 in the data set on L1210 [1] stood at 14 mg/kg. Besides, the LD10 in the data set on Mus musculus is 16 mg/kg. Also, the “log(ILSmax)” value in the data set on L1210 [2] is 1.51. In data set [3], this compound showed a Rm of 0.05.
Turning to `CC[n+]1ccc(Nc2ccc(NC(=O)c3ccc(Nc4cc[n+](CC)c5ccc(N)cc45)cc3)cc2N)cc1.[I-].[I-]`, the D40 with L1210 [1] was 1.5 mg/kg. Further, in the data set on Mus musculus, the LD10 worked out at 6.5 mg/kg. Further, the “log(ILSmax)” value in the data set on L1210 [2] is on record as 2.1. Also, the Rm in data set [3] amounted to 0.15.
In the case of `CCC[n+]1ccc(Nc2ccc(NC(=O)c3ccc(Nc4cc[n+](CCC)c5ccc(N)cc45)cc3)cc2N)cc1.[I-].[I-]`, the D40 with L1210 [1] stood at 3.6 mg/kg. The LD10 in the data set with Mus musculus was determined as 10 mg/kg. The “log(ILSmax)” value in the data set on L1210 [2] came to 1.95. The compound also registered a Rm in data set [3] of 0.41.
`CCCC[n+]1cccc2cc(NC(=O)c3ccc(C(=O)Nc4ccc5c(ccc[n+]5CCCC)c4)cc3)ccc21.Cc1ccc(S(=O)(=O)[O-])cc1.Cc1ccc(S(=O)(=O)[O-])cc1`: the D40 in the data set on L1210 [1] stood at 25 mg/kg. Besides, the LD10 with Mus musculus is 59 mg/kg. Further, in the data set with L1210 [2], the “log(ILSmax)” value is recorded as 2.04. Besides, the Rm in data set [3] was 0.67.
In the same order, the values of `CC[n+]1cc(-c2ccc(NC(=O)/C=C/c3ccc(C(=O)Nc4ccc(-c5c[n+](CC)c(N)nc5N)cc4)cc3)cc2)c(N)nc1N.Cc1ccc(S(=O)(=O)[O-])cc1.Cc1ccc(S(=O)(=O)[O-])cc1` are 5.1 mg/kg, 27 mg/kg, 2.23 and -0.35.
In the case of `CC[n+]1cccc2cc(NC(=O)COc3ccc(C(=O)Nc4ccc5c(ccc[n+]5CC)c4)cc3)ccc21.Cc1ccc(S(=O)(=O)[O-])cc1.Cc1ccc(S(=O)(=O)[O-])cc1`, in the data set on L1210 [1], the D40 was 4 mg/kg. Further, in the data set on Mus musculus, the LD10 is 4 mg/kg. Also, the “log(ILSmax)” value in the data set with L1210 [2] is listed as 1.4. In data set [3], the Rm is recorded as -0.11.
In the case of `CCCC[n+]1cccc2cc(NC(=O)/C=C/c3ccc(C(=O)Nc4ccc5c(ccc[n+]5CCCC)c4)cc3)ccc21.Cc1ccc(S(=O)(=O)[O-])cc1.Cc1ccc(S(=O)(=O)[O-])cc1`, the D40 in the data set on L1210 [1] worked out at 25 mg/kg. This compound also displayed an LD10 in the data set with Mus musculus of 25 mg/kg. In addition, the “log(ILSmax)” value in the data set with L1210 [2] is 1.4. Further, the Rm in data set [3] amounted to 0.9.
For the compound `CCC[n+]1cccc(NC(=O)c2ccc(NC(=O)/C=C/c3ccc(C(=O)Nc4ccc(C(=O)Nc5ccc[n+](CCC)c5)cc4)cc3)cc2)c1.Cc1ccc(S(=O)(=O)[O-])cc1.Cc1ccc(S(=O)(=O)[O-])cc1`, the D40 in the data set with L1210 [1] worked out at 11.5 mg/kg. Moreover, the LD10 with Mus musculus stood at 46 mg/kg. The “log(ILSmax)” value in the data set with L1210 [2] is given as 1.95. Besides, in data set [3], the Rm is reported as -0.2.
Take `CCC[n+]1cc(-c2ccc(NC(=O)c3ccc(Nc4cc[n+](CCC)c5ccccc45)cc3)cc2)c(N)nc1N.[I-].[I-]`: in the data set on L1210 [1], the D40 is 15.8 mg/kg. Besides, the LD10 with Mus musculus was 40 mg/kg. For the same compound, in the data set on L1210 [2], the “log(ILSmax)” value amounted to 1.85. This compound displayed a Rm in data set [3] of 0.68.
On the same counts, the results for `CC[n+]1cccc(NC(=O)c2ccc(NC(=O)c3ccc(C(=O)Nc4ccc(C(=O)Nc5ccc[n+](CC)c5)cc4)c(OC)c3)cc2)c1.Cc1ccc(S(=O)(=O)[O-])cc1.Cc1ccc(S(=O)(=O)[O-])cc1` are 18 mg/kg, 20 mg/kg, 1.85 and 0.55.
In the same order, the values of `CCCCC[n+]1cccc2cc(NC(=O)c3ccc(C(=O)Nc4ccc5c(ccc[n+]5CCCCC)c4)c(N)c3)ccc21.Cc1ccc(S(=O)(=O)[O-])cc1.Cc1ccc(S(=O)(=O)[O-])cc1` are 15 mg/kg, 16 mg/kg, 1.51 and 0.85.
In the case of `CCC[n+]1ccc(Nc2ccc(NC(=O)c3ccc(Nc4cc[n+](CCC)c5ccccc45)cc3N)cc2)cc1.[I-].[I-]`, the D40 with L1210 [1] worked out at 24 mg/kg. For the same compound, the LD10 in the data set with Mus musculus is 24 mg/kg. Moreover, in the data set on L1210 [2], the “log(ILSmax)” value worked out at 1.6. In addition, the Rm in data set [3] was 0.71.
For `CC[n+]1ccc(Nc2ccc(NC(=O)c3ccc(C(=O)Nc4ccc(Nc5cc[n+](CC)c(N)n5)cc4)cc3)cc2)nc1N.Cc1ccc(S(=O)(=O)[O-])cc1.Cc1ccc(S(=O)(=O)[O-])cc1`, the D40 in the data set with L1210 [1] came to 10 mg/kg. In addition, the LD10 with Mus musculus was determined as 112 mg/kg. The “log(ILSmax)” value with L1210 [2] is 2.06. In data set [3], the Rm is on record as -0.3.
As for `CCCC[n+]1cccc(NC(=O)c2ccc(NC(=O)c3ccc(C(=O)Nc4ccc5c(ccc[n+]5CCCC)c4)cc3)cc2)c1.Cc1ccc(S(=O)(=O)[O-])cc1.Cc1ccc(S(=O)(=O)[O-])cc1`, the D40 with L1210 [1] stood at 32 mg/kg. In the data set with Mus musculus, this compound gave an LD10 of 32 mg/kg. Further, in the data set with L1210 [2], the “log(ILSmax)” value worked out at 1.6. Also, the Rm in data set [3] amounted to 0.85.

For the origin of these results see ChEMBL document CHEMBL3228010, “Potential antitumor agents. 29. Quantitative structure-activity relationships for the antileukemic bisquaternary ammonium heterocycles” (J Med Chem, 1979).
